Assay results reported in PubChem BioAssay AID248 (DTP/NCI, 2004).
Where “and” joins values, the source holds several entries; their conditions need not be identical. Identical values can stand only once. Inconclusive results and toxic doses are left out.

Test system: L1210 leukemia ip in BDF1 mice, survival T/C
Assay: NCI In Vivo Anticancer Drug Screen. Data for tumor model L1210 Leukemia (intraperitoneal) in B6D2F1 (BDF1) mice
Settings: endpoint: mean survival time, higher = longer survival
How it was run: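 Antitumor effect is assessed in tumor-bearing animals. Survival in the compound arm is compared with a vehicle-dosed control arm and expressed as their quotient.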

[1] = dose: 100.0 mg/kg/injection, schedule: Q04DX003 (ip), vehicle: Klucel (hydroxypropylcellulose) (HPC)
[2] = dose: 200.0 mg/kg/injection, schedule: Q04DX003 (ip), vehicle: Klucel (hydroxypropylcellulose) (HPC)
[3] = dose: 400.0 mg/kg/injection, schedule: Q04DX003 (ip), vehicle: Klucel (hydroxypropylcellulose) (HPC)
[4] = dose: 200.0 mg/kg/injection, schedule: Q01DX001 (ip), vehicle: carboxymethylcellulose (CMC)
[5] = dose: 400.0 mg/kg/injection, schedule: Q01DX001 (ip), vehicle: carboxymethylcellulose (CMC)
[6] = dose: 100.0 mg/kg/injection, schedule: Q01DX009 (ip), vehicle: saline with Tween-80
[7] = dose: 100.0 mg/kg/injection, schedule: Q04DX002 (ip), vehicle: saline with Tween-80
[8] = dose: 200.0 mg/kg/injection, schedule: Q01DX009 (ip), vehicle: saline with Tween-80
[9] = dose: 200.0 mg/kg/injection, schedule: Q04DX002 (ip), vehicle: saline with Tween-80
[10] = dose: 200.0 mg/kg/injection, schedule: Q04DX003 (ip), vehicle: saline with Tween-80
[11] = dose: 400.0 mg/kg/injection, schedule: Q04DX002 (ip), vehicle: saline with Tween-80
[12] = dose: 400.0 mg/kg/injection, schedule: Q04DX003 (ip), vehicle: saline with Tween-80
[13] = dose: 100.0 mg/kg/injection, schedule: Q01DX001 (ip), vehicle: saline
[14] = dose: 200.0 mg/kg/injection, schedule: Q01DX001 (ip), vehicle: saline
[15] = dose: 400.0 mg/kg/injection, schedule: Q01DX001 (ip), vehicle: saline
[16] = dose: 100.0 mg/kg/injection, schedule: Q01DX009 (ip), vehicle: Klucel (hydroxypropylcellulose) (HPC)
[17] = dose: 100.0 mg/kg/injection, schedule: Q04DX002 (ip), vehicle: Klucel (hydroxypropylcellulose) (HPC)
[18] = dose: 200.0 mg/kg/injection, schedule: Q01DX009 (ip), vehicle: Klucel (hydroxypropylcellulose) (HPC)
[19] = dose: 200.0 mg/kg/injection, schedule: Q04DX002 (ip), vehicle: Klucel (hydroxypropylcellulose) (HPC)
[20] = dose: 400.0 mg/kg/injection, schedule: Q04DX002 (ip), vehicle: Klucel (hydroxypropylcellulose) (HPC)
[21] = dose: 50.0 mg/kg/injection, schedule: Q01DX001 (ip), vehicle: saline
[22] = dose: 100.0 mg/kg/injection, schedule: Q04DX003 (ip), vehicle: saline with Tween-80
[23] = dose: 400.0 mg/kg/injection, schedule: Q01DX009 (ip), vehicle: saline with Tween-80

c1ccc2c(OCC3CO3)cccc2c1 (stereo unspecified)
T/C (dose: 50.0 mg/kg/injection, schedule: Q01DX001 (ip), vehicle: other): 94 % of control
T/C (dose: 100.0 mg/kg/injection, schedule: Q01DX001 (ip), vehicle: other): 94 % of control
T/C (dose: 200.0 mg/kg/injection, schedule: Q01DX001 (ip), vehicle: other): 94 % of control
T/C (dose: 400.0 mg/kg/injection, schedule: Q01DX001 (ip), vehicle: other): 111 % of control

N#C/C(=C/c1c(Cl)cccc1Cl)C(N)=O
T/C (dose: 75.0 mg/kg/injection, schedule: Q01DX001 (ip), vehicle: saline): 93 % of control

CCCCCCCCCCCCCCOc1ccc(C(=S)N2CCOCC2)cc1OC
T/C [1]: 100 % of control
T/C [2]: 100 % of control
T/C [3]: 94 % of control

CCCCCCOC(=O)C1(C)OC1c1ccccc1 (stereo unspecified)
T/C (dose: 100.0 mg/kg/injection, schedule: Q04DX002 (ip), vehicle: saline): 112 % of control
T/C (dose: 200.0 mg/kg/injection, schedule: Q04DX002 (ip), vehicle: saline): 104 % of control
T/C (dose: 400.0 mg/kg/injection, schedule: Q04DX002 (ip), vehicle: saline): 93 % of control

O=NN(CCCl)C(=O)Nc1ccc2ccccc2c1
T/C [4]: 161 % of control
T/C (dose: 300.0 mg/kg/injection, schedule: Q01DX001 (ip), vehicle: carboxymethylcellulose (CMC)): 172 % of control
T/C [5]: 96 % of control

Nc1nc(NCCCc2ccccc2)c(N=Nc2ccccc2)c(=O)[nH]1
T/C (dose: 100.0 mg/kg/injection, schedule: Q01DX001 (ip), vehicle: saline with Tween-80): 106 % of control
T/C [6]: 98 % of control and 100 % of control
T/C [7]: 94 % of control
T/C (dose: 200.0 mg/kg/injection, schedule: Q01DX001 (ip), vehicle: saline with Tween-80): 107 % of control
T/C [8]: 93 % of control and 98 % of control
T/C [9]: 93 % of control and 89 % of control
T/C [10]: 86 % of control
T/C (dose: 400.0 mg/kg/injection, schedule: Q01DX001 (ip), vehicle: saline with Tween-80): 104 % of control
T/C [11]: 94 % of control and 89 % of control
T/C [12]: 86 % of control

O=C(O)C(=O)/C=C/c1cccc([N+](=O)[O-])c1
T/C [13]: 96 % of control
T/C (dose: 100.0 mg/kg/injection, schedule: Q01DX009 (ip), vehicle: saline): 106 % of control
T/C [14]: 96 % of control
T/C (dose: 200.0 mg/kg/injection, schedule: Q01DX009 (ip), vehicle: saline): 95 % of control
T/C [15]: 102 % of control

CNC(=O)Nc1nc2ccccc2s1
T/C (dose: 50.0 mg/kg/injection, schedule: Q04DX002 (ip), vehicle: Klucel (hydroxypropylcellulose) (HPC)): 91 % of control
T/C [16]: 103 % of control
T/C [17]: 97 % of control and 98 % of control
T/C [18]: 93 % of control
T/C [19]: 94 % of control
T/C (dose: 400.0 mg/kg/injection, schedule: Q01DX009 (ip), vehicle: Klucel (hydroxypropylcellulose) (HPC)): 93 % of control
T/C [20]: 90 % of control

O=C1c2ccccc2C(=O)C1(Br)Br
T/C [21]: 106 % of control
T/C [13]: 97 % of control
T/C [14]: 101 % of control

Cc1[nH]c2ccccc2c1C1CCC(=O)C1 (stereo unspecified)
T/C (dose: 100.0 mg/kg/injection, schedule: Q01DX001 (ip), vehicle: carboxymethylcellulose (CMC)): 100 % of control
T/C [4]: 89 % of control
T/C [5]: 93 % of control

Cc1cc(Br)ccc1NC(=O)/C=C/C(=O)O
T/C [17]: 114 % of control
T/C [19]: 95 % of control
T/C [20]: 100 % of control

CCCCCCCCCCCCCC(CCC)CCC
T/C [13]: 94 % of control
T/C [14]: 96 % of control
T/C [15]: 94 % of control

Nc1cc(N2CCCC2)nc(-c2ccccc2)n1
T/C (dose: 50.0 mg/kg/injection, schedule: Q01DX009 (ip), vehicle: saline with Tween-80): 98 % of control
T/C [6]: 95 % of control

O=C(O)c1c(Br)c(Br)c(Br)c(Br)c1C(=O)Nc1ccc(Br)cc1
T/C [16]: 104 % of control
T/C [18]: 101 % of control

CC(Cc1ccccc1)Cc1ccccc1
T/C [22]: 96 % of control
T/C [10]: 88 % of control
T/C [12]: 98 % of control

CN(C)C(=O)N1CN(c2ccccc2)C2(CCN(CC3COc4ccccc4O3)CC2)C1=O (stereo unspecified)
T/C (dose: 100.0 mg/kg/injection, schedule: Q01DX001 (ip), vehicle: Klucel (hydroxypropylcellulose) (HPC)): 101 % of control
T/C (dose: 200.0 mg/kg/injection, schedule: Q01DX001 (ip), vehicle: Klucel (hydroxypropylcellulose) (HPC)): 97 % of control
T/C (dose: 400.0 mg/kg/injection, schedule: Q01DX001 (ip), vehicle: Klucel (hydroxypropylcellulose) (HPC)): 106 % of control

CCCCC[C@H](CN(C)C)[C@H](O)/C=C/c1ccc(Cl)cc1
T/C (dose: 12.5 mg/kg/injection, schedule: Q04DX002 (ip), vehicle: saline): 113 % of control
T/C (dose: 25.0 mg/kg/injection, schedule: Q04DX002 (ip), vehicle: saline): 110 % of control
T/C (dose: 50.0 mg/kg/injection, schedule: Q04DX002 (ip), vehicle: saline): 102 % of control

O=C1C(O)CCN1Cc1ccccc1 (stereo unspecified)
T/C [21]: 108 % of control
T/C [13]: 104 % of control
T/C [14]: 104 % of control
T/C [15]: 102 % of control

COc1ccc(N(C=O)N=O)cc1
T/C (dose: 75.0 mg/kg/injection, schedule: Q01DX001 (ip), vehicle: other): 90 % of control
T/C (dose: 150.0 mg/kg/injection, schedule: Q01DX001 (ip), vehicle: other): 93 % of control

CCC(=O)Nc1cccc(OC(=O)NC(C)(C)C)c1
T/C [22]: 90 % of control
T/C [10]: 90 % of control
T/C [12]: 89 % of control

CCOC(=O)c1cnc(SCCN2C(=O)c3ccccc3C2=O)[nH]c1=O
T/C (dose: 100.0 mg/kg/injection, schedule: Q04DX003 (ip), vehicle: gum acacia): 100 % of control
T/C (dose: 200.0 mg/kg/injection, schedule: Q04DX003 (ip), vehicle: gum acacia): 102 % of control
T/C (dose: 400.0 mg/kg/injection, schedule: Q04DX003 (ip), vehicle: gum acacia): 97 % of control

N#CCC(=O)N/N=C/c1ccccc1
T/C [7]: 97 % of control
T/C [9]: 101 % of control
T/C [11]: 101 % of control

CNc1cc(N2CCCC2)ccn1
T/C (dose: 5.0 mg/kg/injection, schedule: Q01DX001 (ip), vehicle: saline): 104 % of control
T/C (dose: 10.0 mg/kg/injection, schedule: Q01DX001 (ip), vehicle: saline): 110 % of control

Clc1cccc(Cl)c1/C=N/Nc1nnc(N/N=C/c2c(Cl)cccc2Cl)c2ccccc12
T/C [21]: 103 % of control
T/C [13]: 100 % of control
T/C [14]: 100 % of control
T/C [15]: 103 % of control

CC1CC=CCC1COC(=O)C(=O)OCC1CC=CCC1C (stereo unspecified)
T/C [6]: 98 % of control
T/C [22]: 101 % of control
T/C [8]: 95 % of control
T/C [10]: 97 % of control
T/C [23]: 95 % of control
T/C [12]: 95 % of control

CC1C(C(C)(C)C)N1C (stereo unspecified)
T/C [1]: 108 % of control
T/C [2]: 110 % of control

Oc1ccccc1C=Nc1ccc(I)cc1.Oc1ccccc1C=Nc1ccc(I)cc1.[Co]
T/C [22]: 96 % of control
T/C [10]: 108 % of control
T/C [12]: 102 % of control

O=C(CCl)N1CCC(CC2(c3cc4ccccc4[nH]3)OCCO2)CC1
T/C (dose: 100.0 mg/kg/injection, schedule: Q04DX002 (ip), vehicle: other): 97 % of control
T/C (dose: 200.0 mg/kg/injection, schedule: Q04DX002 (ip), vehicle: other): 90 % of control
T/C (dose: 400.0 mg/kg/injection, schedule: Q04DX002 (ip), vehicle: other): 94 % of control

CCCCCCCCCCCCCCCC(=O)Nc1cccc2c[n+](CC(=O)c3ccc(NC(=O)CCC(=O)OC)cc3)ccc12
T/C [6]: 87 % of control
T/C [23]: 91 % of control
T/C [12]: 94 % of control

CCc1ccc2c(c1)Nc1ccccc1S2
T/C (dose: 50.0 mg/kg/injection, schedule: Q01DX009 (ip), vehicle: Klucel (hydroxypropylcellulose) (HPC)): 97 % of control
T/C (dose: 50.0 mg/kg/injection, schedule: Q04DX003 (ip), vehicle: Klucel (hydroxypropylcellulose) (HPC)): 91 % of control
T/C [16]: 97 % of control
T/C [1]: 96 % of control
T/C [18]: 101 % of control
T/C [2]: 97 % of control
T/C [3]: 86 % of control
